Active and inactive are the calls of the source. No cut-off for these calls is given here.
Key:
NCI-H358 [1] = experiment: Cytotoxicity against human NCI-H358 cells up to 30 uM after 48 hrs by WST-1 assay; assay type: cell-based; conditions: nci-h358, 48 h
NIH3T3 [2] = experiment: Cytotoxicity against mouse NIH/3T3 cells up to 30 uM after 48 hrs by WST-1 assay; assay type: cell-based; conditions: nih3t3, 48 h
[3] = biological target: T1, Type-1 angiotensin II receptor (Homo sapiens, UniProt P30556); experiment: (§1) Displacement of [125I-Sar1-Ile8]-Ang2 from human angiotensin 2 receptor type 1 receptor expressed in HEK293 cells after 1 hr by gamma counting analysis; assay type: cell-based
T1 sequence (P30556 whole entry): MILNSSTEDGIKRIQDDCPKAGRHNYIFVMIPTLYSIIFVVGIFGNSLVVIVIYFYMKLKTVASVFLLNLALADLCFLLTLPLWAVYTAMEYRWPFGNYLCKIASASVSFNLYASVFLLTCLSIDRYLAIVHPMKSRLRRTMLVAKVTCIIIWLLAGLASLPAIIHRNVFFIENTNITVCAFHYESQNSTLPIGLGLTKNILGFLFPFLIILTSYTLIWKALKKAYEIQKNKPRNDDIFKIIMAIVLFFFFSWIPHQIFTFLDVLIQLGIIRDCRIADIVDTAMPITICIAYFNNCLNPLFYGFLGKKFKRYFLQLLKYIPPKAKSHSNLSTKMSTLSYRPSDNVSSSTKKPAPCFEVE

NIH3T3 [4] = experiment: Antimigratory activity against mouse NIH/3T3 cells at 10 uM after 72 hrs by wound-healing assay; assay type: ADME, cell-based; conditions: nih3t3, 72 h
A549 [5] = experiment: Cytotoxicity against human A549 cells up to 30 uM after 48 hrs by WST-1 assay; assay type: cell-based; conditions: a549, 48 h
HUVEC [6] = experiment: Cell cycle arrest in human HUVEC cells assessed as accumulation of cells with 8N DNA content at 100 uM after 1 to 2 days by propidium iodide staining-based flow cytometric analysis relative to control; assay type: ADME
MCF7 [7] = experiment: Cell cycle arrest in human MCF7 cells assessed as cell death at 50 to 100 uM after 24 hrs by propidium iodide staining-based flow cytometric analysis; assay type: functional
HUVEC [8] = experiment: Cell cycle arrest in human HUVEC cells assessed as cell death at 50 to 100 uM after 24 hrs by propidium iodide staining-based flow cytometric analysis; assay type: ADME
MCF7 [9] = experiment: Cell cycle arrest in human MCF7 cells assessed as increase in cells at G2/M phase after 48 hrs by propidium iodide staining-based flow cytometric analysis; assay type: functional
HUVEC [10] = experiment: Cell cycle arrest in human HUVEC cells assessed as decrease in cells at G0/G1 phase after 24 hrs by propidium iodide staining-based flow cytometric analysis; assay type: ADME
A549 [11] = experiment: Cytotoxicity against human A549 cells at 1 to 10 uM after 72 hrs measured during wound-healing assay; assay type: cell-based; conditions: a549, 72 h
MCF7 [12] = experiment: Cell cycle arrest in human MCF7 cells assessed as cell detachment at 50 to 100 uM after 24 hrs by propidium iodide staining-based flow cytometric analysis; assay type: functional
HUVEC [13] = experiment: Cell cycle arrest in human HUVEC cells assessed as cell detachment at 50 to 100 uM after 24 hrs by propidium iodide staining-based flow cytometric analysis; assay type: ADME
NIH3T3 [14] = experiment: Cytotoxicity against mouse NIH/3T3 cells at 1 to 10 uM after 72 hrs measured during wound-healing assay; assay type: cell-based; conditions: nih3t3, 72 h
NCI-H358 [15] = experiment: Cytotoxicity against human NCI-H358 cells at 1 to 10 uM after 48 hrs measured during wound-healing assay; assay type: cell-based; conditions: nci-h358, 48 h
A549 [16] = experiment: Antimigratory activity against human A549 cells at 10 uM after 72 hrs by wound-healing assay; assay type: functional, cell-based
MCF7 [17] = experiment: Cell cycle arrest in human MCF7 cells assessed as decrease in cells at G0/G1 phase after 48 hrs by propidium iodide staining-based flow cytometric analysis; assay type: functional
HUVEC [18] = experiment: Cell cycle arrest in human HUVEC cells assessed as accumulation of cells at subG1 phase at 50 to 100 uM after 24 hrs by propidium iodide staining-based flow cytometric analysis; assay type: ADME
MCF7 [19] = experiment: Cell cycle arrest in human MCF7 cells assessed as accumulation of cells with 8N DNA content at 100 uM after 1 to 2 days by propidium iodide staining-based flow cytometric analysis relative to control; assay type: functional
NCI-H358 [20] = experiment: Antimigratory activity against human NCI-H358 cells at 10 uM after 48 hrs by wound-healing assay; assay type: functional, cell-based
MCF7 [21] = experiment: Cell cycle arrest in human MCF7 cells assessed as accumulation of cells at subG1 phase at 50 to 100 uM after 24 hrs by propidium iodide staining-based flow cytometric analysis; assay type: functional
HUVEC [22] = experiment: Cell cycle arrest in human HUVEC cells assessed as increase in cells at G2/M phase after 24 hrs by propidium iodide staining-based flow cytometric analysis; assay type: ADME
[23] = biological target: T2, Type-1 angiotensin II receptor (Homo sapiens) (UniProt P30556); experiment: as §1; assay type: cell-based
T2 sequence (whole entry): T1 sequence (P30556 whole entry)

Row | SMILES | Activity (NCI-H358 [1]) | Activity (NIH3T3 [2]) | Ki [3] | Activity (NIH3T3 [4]) | Activity (A549 [5]) | Activity (A549 [11]) | Activity (NIH3T3 [14]) | Activity (NCI-H358 [15]) | Activity (A549 [16]) | Activity (NCI-H358 [20]) | further results
1 | CCCCC1=N/C(=C\c2ccc(Br)cc2)C(=O)N1Cc1ccc(-c2ccccc2C#N)cc1 | Non-Toxic | Non-Toxic | 24800 nM | Toxic | Non-Toxic | Non-Toxic | Non-Toxic | Non-Toxic | Active | Active | Activity (HUVEC [6]): 90%; Activity (MCF7 [7]): Active; Activity (HUVEC [8]): Toxic; Activity (MCF7 [9]): Dose-dependent effect; Activity (HUVEC [10]): Dose-dependent effect; Activity (MCF7 [12]): Active; Activity (HUVEC [13]): Toxic; Activity (MCF7 [17]): Dose-dependent effect; Activity (HUVEC [18]): Toxic; Activity (MCF7 [19]): >70%; Activity (MCF7 [21]): Active; Activity (HUVEC [22]): Dose-dependent effect
2 | CCCCC(=O)N(Cc1ccc(-c2ccccc2-c2nnn[nH]2)cc1)[C@H](C(=O)O)C(C)C | Non-Toxic | Non-Toxic |  | Toxic | Non-Toxic |  |  |  | Active | Active | 
3 | CCCCC1=N/C(=C\c2ccc(Br)cc2)C(=O)N1Cc1ccc(-c2ccccc2-c2nnn(C(c3ccccc3)(c3ccccc3)c3ccccc3)n2)cc1 | Non-Toxic | Non-Toxic |  |  | Non-Toxic | Non-Toxic | Non-Toxic | Non-Toxic |  | Active | 
4 | CCCCC1=N/C(=C\c2cccc(Br)c2)C(=O)N1Cc1ccc(-c2ccccc2-c2nnn(C(c3ccccc3)(c3ccccc3)c3ccccc3)n2)cc1 | Non-Toxic | Non-Toxic |  |  | Non-Toxic | Non-Toxic | Non-Toxic | Non-Toxic | Active | Active | 
5 | CCOc1nc2cccc(C(=O)O)c2n1Cc1ccc(-c2ccccc2-c2nnn[nH]2)cc1 |  |  | 10.4 nM |  |  |  |  |  |  |  | 
6 | CCCCC1=N/C(=C\c2ccc(Cl)cc2)C(=O)N1Cc1ccc(-c2ccccc2-c2nnn(C(c3ccccc3)(c3ccccc3)c3ccccc3)n2)cc1 | Non-Toxic | Non-Toxic |  |  | Non-Toxic | Non-Toxic | Non-Toxic | Non-Toxic |  |  | 
7 | CCCCC1=N/C(=C\c2cccc(Cl)c2)C(=O)N1Cc1ccc(-c2ccccc2-c2nnn(C(c3ccccc3)(c3ccccc3)c3ccccc3)n2)cc1 | Non-Toxic | Non-Toxic |  |  | Non-Toxic | Non-Toxic | Non-Toxic | Non-Toxic | Active |  | 
8 | CCCCC1=N/C(=C\c2ccccc2Br)C(=O)N1Cc1ccc(-c2ccccc2-c2nnn(C(c3ccccc3)(c3ccccc3)c3ccccc3)n2)cc1 | Non-Toxic | Non-Toxic | 317 nM | Toxic | Non-Toxic | Non-Toxic | Non-Toxic | Non-Toxic | Active |  | inhibition [23]: Dose-dependent effect

Reference: ChEMBL document CHEMBL4145475, “Integration of multi-scale molecular modeling approaches with experiments for the in silico guided design and discovery of novel hERG-Neutral antihypertensive oxazalone and imidazolone derivatives and analysis of their potential restrictive effects on cell proliferation” (Eur J Med Chem, 2018)
